The values that follow come from US20250066412A1, “CRYSTAL OF 4’-SUBSTITUTED NUCLEOSIDE, PREPARATION METHOD THEREFOR, COMPOSITION CONTAINING THE SAME, AND USE THEREOF” (HENAN GENUINE BIOTECH CO., LTD., priority 2022, published 2025).

In data set [1] the test system is HIV. The settings on record: cited from earlier work; for EC50: E. Michailidis et al J. Biol. Chem. 2009, read-out: HIV inhibitory activity EC50; for inhibitory activities against HIV: literature reports.
Data set [2] relates to HIV. Particulars: CN109893536 B; read-out: anti-HIV activity EC50; cited from earlier work.
The conditions of data set [3]: at 110° C., DSC and TGA studies, background; cited from earlier work.
Data set [4] is described as follows: crystal form stability by XRPD after heating, drying or storage. Particulars: for XRPD / crystal form after heating: heated to 120° C.
[5] abbreviates: heated to 160° C. under nitrogen protection.
Where [6] appears, read: heated to 130° C. under nitrogen.
[7] abbreviates: vacuum drying at room temperature for 24 h.

Molecules are shown by their SMILES. Where two headings read alike, the source gives them in different places.

Turning to `C#C[C@]1(CO)O[C@@H](n2cnc3c(N)nc(F)nc32)C[C@@H]1O` [Compound 1], in data set [1], the EC50 (in general, the concentration giving half of the maximal effect) is 0.05 nM and the “inhibitory activities against HIV” value is “significant inhibitory activities”. Besides, the “increase of HIV inhibitory activity by introduction of 2-fluorine” value in data set [1] (EFdA versus EdA) is listed as 2200 times.
On to `C#C[C@]1(CO)O[C@@H](n2cnc3c(N)ncnc32)C[C@@H]1O` [EdA, 4′-ethynyl-2′-deoxyadenosine], for which the EC50 in data set [1] was 11 nM.
Take `C#C[C@]1(CO)O[C@@H](n2cnc3c(N)nc(F)nc32)[C@@H](F)[C@@H]1O` [compound (3), (2R,3R,4S,5R)-5-(6-amino-2-fluoro-9H-purin-9-yl)-2-ethynyl-4-fluoro-2-(hydroxymethyl)tetrahydrofuran-3-ol]: the EC50 in data set [2] is 0.9 nM.
With `[N-]=[N+]=N[C@]1(CO)O[C@@H](n2ccc(N)nc2=O)[C@@H](F)[C@@H]1O` [compound (II)], the “inhibitory activities against HIV” value in data set [1] is listed as “significant inhibitory activities”.
As to `C#C[C@]1(CO)O[C@@H](n2cnc3c(N)nc(F)nc32)[C@@H](F)[C@@H]1O` [crystal form A], the weight loss in data set [3] is on record as 9.0%.
For `C#C[C@]1(CO)O[C@@H](n2cnc3c(N)nc(F)nc32)[C@@H](F)[C@@H]1O` [type-I crystal], the weight loss (further heated from 110° C. to 200° C.) came to 3.5% and the weight loss (heated to 110° C.) is listed as 13.2%. For the same compound, the XRPD after heating result in data set [4] (heated to 55° C. under nitrogen, cooled to room temperature, exposed to air) is “the diffraction peak intensity of the sample was somewhat reduced”. In data set [4] (heated to 100° C. under nitrogen protection), the “crystal form after heating (XRPD)” value is on record as “transformed into an amorphous crystal”.
With `C#C[C@]1(CO)O[C@@H](n2cnc3c(N)nc(F)nc32)[C@@H](F)[C@@H]1O` [type-II crystal], the “crystal form after drying” value in data set [4] (vacuum dried at room temperature for half an hour) is “transformed into a type-III crystal”.
`C#C[C@]1(CO)O[C@@H](n2cnc3c(N)nc(F)nc32)[C@@H](F)[C@@H]1O` [type-III crystal] displayed a weight loss (heated to 200° C.) of 1.2%. The “crystal form after heating (variable-temperature XRPD)” value in data set [4] (heated to 150° C. under nitrogen protection) is “the crystal form did not change”.
Where the note is “heated to 120° C.”, `C#C[C@]1(CO)O[C@@H](n2cnc3c(N)nc(F)nc32)[C@@H](F)[C@@H]1O` [type-IV crystal] showed a weight loss of 10.6%. The XRPD after storage entry in data set [4] (dried crystal left closed at room temperature for about 5 days) is “increased relative intensity of the diffraction peaks and increased number of diffraction peaks”. Also, the “crystal form after heating (XRPD)” value in data set [4] (heated to 141° C. under nitrogen protection) is reported as “transformed into a stable type-III crystal”. Besides, the XRPD after drying result in data set [4] (vacuum dried at room temperature for 15 min) is “decreased relative intensity of the diffraction peaks”.
`C#C[C@]1(CO)O[C@@H](n2cnc3c(N)nc(F)nc32)[C@@H](F)[C@@H]1O` [type-IX crystal]: the weight loss (heated to 160° C.) is reported as 20.3%. Besides, the “crystallinity after heating (XRPD)” value in data set [4] (heated to 95° C. under nitrogen, cooled to room temperature, exposed to air) was “the degree of crystallinity was further decreased”. The “crystal form after heating (XRPD)” value in data set [4] (setting [5]) is “its crystal form had been transformed”. In addition, in data set [4] (left closed at room temperature for about 3 days), the crystallinity after storage result is “a reduced degree of crystallinity”.
As for `C#C[C@]1(CO)O[C@@H](n2cnc3c(N)nc(F)nc32)[C@@H](F)[C@@H]1O` [type-V crystal], the weight loss (further heated from 140° C. to 240° C.) came out at 2.8% and the weight loss (heated to 140° C.) is 15.4%. The “crystal form after heating (variable-temperature XRPD)” value in data set [4] (further heated to 154° C.) was “transformed into another crystal”; in data set [4] (heated to 90° C. and 130° C. under nitrogen protection) it was “substantially transformed into an amorphous crystal”. For the same compound, in data set [4] (purged with nitrogen for about 20 min), the “crystallinity (variable-temperature XRPD)” value is “significant decrease in degree of crystallinity”.
`C#C[C@]1(CO)O[C@@H](n2cnc3c(N)nc(F)nc32)[C@@H](F)[C@@H]1O` [type-VI crystal] came in with a weight loss (further heated from 70° C. to 130° C.) of 5.9% and a weight loss (heated to 70° C.) of 4.9%. Moreover, the “crystal form after heating (XRPD)” value in data set [4] (setting [5]) is “the crystal form was transformed”.
Turning to `C#C[C@]1(CO)O[C@@H](n2cnc3c(N)nc(F)nc32)[C@@H](F)[C@@H]1O` [type-VII crystal], the weight loss (heated to 130° C.) is 11.2%. Besides, the XRPD after heating entry in data set [4] (setting [6]) was “the crystal form was transformed”.
`C#C[C@]1(CO)O[C@@H](n2cnc3c(N)nc(F)nc32)[C@@H](F)[C@@H]1O` [type-VIII crystal] yielded a weight loss (heated to 160° C.) of 10.6%. For the same compound, the “crystal form after heating (XRPD)” value in data set [4] (setting [5]) was “the crystal form had been transformed”.
For `C#C[C@]1(CO)O[C@@H](n2cnc3c(N)nc(F)nc32)[C@@H](F)[C@@H]1O` [type-X crystal], the weight loss came out at 4.5% (further heated from 130° C. to 160° C.) and 7.9% (heated to 130° C.). Besides, the “crystal form after heating (variable-temperature XRPD)” value in data set [4] (further heated to 145° C.) is reported as “the crystal form was transformed”. For the same compound, the “XRPD / crystal form after heating” value in data set [4] is recorded as “the position of the diffraction peak shifted”. The XRPD after heating result in data set [4] (setting [6]) is reported as “the diffraction peak intensity was significantly reduced”.
As to `C#C[C@]1(CO)O[C@@H](n2cnc3c(N)nc(F)nc32)[C@@H](F)[C@@H]1O` [type-XI crystal], the weight loss (heated to 120° C.) was 19.3%.
In turn, `C#C[C@]1(CO)O[C@@H](n2cnc3c(N)nc(F)nc32)[C@@H](F)[C@@H]1O` [type-XII crystal] gave a weight loss (heated to 120° C.) of 59.6%. Further, the “crystal form after drying” value in data set [4] (vacuum dried at room temperature for 10 min) is “transformed into an amorphous crystal”.
`C#C[C@]1(CO)O[C@@H](n2cnc3c(N)nc(F)nc32)[C@@H](F)[C@@H]1O` [type-XIII crystal]: the “crystal form in a solvent environment” value in data set [4] (left in a solvent environment at room temperature) is “transformed into the type-XIV crystal”. In addition, in data set [4] (left open and dried at room temperature for about 2 h), the “crystal form after drying” value is “the crystal form was transformed”.
Turning to `C#C[C@]1(CO)O[C@@H](n2cnc3c(N)nc(F)nc32)[C@@H](F)[C@@H]1O` [type-XIV crystal], in data set [4], the “stability of the crystal form (overall finding)” value is on record as “unstable intermediate state”. Besides, the “crystal form after removal from the solvent environment” value in data set [4] (room temperature) is reported as “transformed into the type-XIII crystal”.
Compound `C#C[C@]1(CO)O[C@@H](n2cnc3c(N)nc(F)nc32)[C@@H](F)[C@@H]1O` [type-XV crystal] yielded a weight loss (heated to 120° C.) of 2.2%. In addition, the “XRPD / crystal form after heating” value in data set [4] is reported as “the crystal form transformation occurred”.
For `C#C[C@]1(CO)O[C@@H](n2cnc3c(N)nc(F)nc32)[C@@H](F)[C@@H]1O` [type-XVI crystal], under setting [7], the “weight loss (dehydration)” value stood at 14.39%. Moreover, the “crystal form after heating (XRPD)” value in data set [4] (heated to 55° C. in a nitrogen atmosphere, held for 2 to 24 h) is “the type-XVII crystal was also obtained”. Moreover, the “crystal form after drying” value in data set [4] (setting [7]) is recorded as “turned into a monohydrate crystal form”.
Take `C#C[C@]1(CO)O[C@@H](n2cnc3c(N)nc(F)nc32)[C@@H](F)[C@@H]1O` [type-XVII crystal]: the weight loss (dried at 90° C. for 1 to 24 h) is on record as 5.47%. For the same compound, in data set [4] (dried at 90° C. for 1 to 24 h), the change on drying entry was “lost one molecule of water”.
